According to patent publication US10844049B2, “GLP-1R agonists and uses thereof” (QILU REGOR THERAPEUTICS INC., priority 2018, dated 2020):

What was measured:
[1] = target: T1, GLP1R (Homo sapiens, UniProt P43220); assay: GLP1R cAMP assay, CHO cells stably expressing human GLP-1R; assay type: cell-based
Protocol: GLP-1R-mediated agonist activity was determined with a cell-based functional assay utilizing an HTRF (Homogeneous Time-Resolved Fluorescence) cAMP detection kit (cAMP Dynamic 2 Assay Kit; CisBio cat #62AM4PEC) that measures cAMP levels in the cell. The method is a competitive immunoassay between native cAMP produced by the cells and exogenous cAMP labeled with the dye d2. The tracer binding is visualized by a mAb anti-cAMP labeled with Cryptate. The specific signal (i.e., energy transfer) is inversely proportional to the concentration of cAMP in either standard or experimental sample.
Varying concentrations of each compound to be tested (in DMSO) were diluted in DMSO to obtain 200× compound working solution first and then 50 nl compounds were added to a white 384-well assay plate (Greiner 784075) with ECHO. The final DMSO concentration was 0.5%. The compound concentration range may be adjusted at any time.
Cells were removed from cryopreservation, re-suspended in 5 mL of Dulbecco's Phosphate Buffered Saline (DPBS-Sigma Cat # D8537) and centrifuged at 900 g for 5 min at 22° C. The cell pellet was then re-suspended in 1 mL of assay buffer [DPBS with 500 μM IBMX (Sigma #15879) and 0.1% BSA (Sigma # A1933). IBMX and BSA were freshly added on the day of assay]. A 10 μL sample of the cell suspension was counted on an Invitrogen Countess II to determine cell viability and cell count per mL. The remaining cell suspension was then adjusted with assay buffer to deliver 1000 viable cells per well using a Matrix Combi Multidrop reagent dispenser. 10 μL cell suspensions were added to each well of the assay plate which already contains compound. The plate was sealed and incubated at 37° C. with 5% CO2 for 30 minutes.
Following the 30 minute incubation, 5 μL of labeled d2 cAMP and 5 μL of anti-cAMP antibody (both diluted 1:20 in cell lysis buffer; as described in the manufacturer's assay protocol) were added to each well of the assay plate. The plates w ere then incubated at room temperature and after 60 minutes, changes in the HTRF signal were read with an Envision multi-label plate reader using excitation of 330 nm and emissions of 615 and 665 nm. Raw data were converted to nM cAMP by interpolation from a cAMP standard curve (as described in the manufacturer's assay protocol) and the percent effect was determined relative to a saturating concentration of the full agonist GLP-17-37 (10 nM) included on each plate. EC50 determinations were made from agonist dose-response curves analyzed with a curve fitting program using a 4-parameter logistic dose response equation. […]

[2] = target: T1, GLP1R; assay: GLP1R cAMP HTRF assay, HEK293/GLP-1R/CRE/Luc (HEK293T cells); assay type: cell-based
Procedure, shortened: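 cAMP accumulation via HTRF after 30 min, 37 °C exposure of 1000 receptor-expressing cells/well to compound (0.5% DMSO final) in IBMX (500 μM)/0.1% BSA DPBS.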

[3] = CHO cells, mean ± spread, read-out: CHO cells EC50
[4] = mean ± spread, read-out: HEK293T cells EC50
[5] = CHO cells stably expressing GLP-1R, read-out: CHO cAMP stable EC50

T1 sequence (P43220 24-463): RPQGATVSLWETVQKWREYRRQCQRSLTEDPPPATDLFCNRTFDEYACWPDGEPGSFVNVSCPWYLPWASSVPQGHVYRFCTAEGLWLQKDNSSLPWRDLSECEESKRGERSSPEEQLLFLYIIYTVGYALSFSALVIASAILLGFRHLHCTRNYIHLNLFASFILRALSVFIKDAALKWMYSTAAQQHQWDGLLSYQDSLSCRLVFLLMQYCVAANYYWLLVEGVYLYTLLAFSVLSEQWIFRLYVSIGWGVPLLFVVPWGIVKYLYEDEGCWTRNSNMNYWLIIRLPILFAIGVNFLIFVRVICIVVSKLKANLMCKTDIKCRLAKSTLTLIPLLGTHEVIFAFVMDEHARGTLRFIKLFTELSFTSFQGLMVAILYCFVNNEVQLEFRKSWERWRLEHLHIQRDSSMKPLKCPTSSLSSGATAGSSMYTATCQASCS

Row | Structure (SMILES) | EC50 [1, 3] [nM] | EC50 [2, 4] [nM] | EC50 [1, 5] [nM] | EC50 ([2]; read-out: EC50) [nM]
1 | N#Cc1ccc(COc2nc(C3CCN(Cc4nc5ccc(C(=O)O)cc5n4C[C@@H]4CCO4)CC3)ccc2F)c(F)c1 [reference compound] | 463 | 5.65 | – | –
2 | N#Cc1ccc(COc2cccc(N3CCC(Cc4nc5ccc(C(=O)O)nc5n4C[C@@H]4CCO4)CC3)n2)c(F)c1 [Compound 227, (S)-2-((l-(6-((4-cyano-2-fluorobenzyl)oxy)pyridin-2-yl)piperidin-4-yl)methyl)-3-(oxetan-2-ylmethyl)-3H-imidazo[4,5-b]pyridine-5-carboxylic acid] | – | – | ≤ 150 | ≤ 15
3 | O=C(O)c1ccc2nc(CN3CC=C(c4cncc(OCc5ccc(Cl)cc5F)n4)CC3)n(C[C@@H]3CCO3)c2c1 [drawing 61] | 136 ± 32.6 | 2.94 | – | –
4 | O=C(O)c1ccc2nc(CN3CCC(c4cccc(OCc5ccc(Cl)cc5F)n4)CC3)n(C[C@@H]3CCO3)c2c1 [reference compound] | 7.65 | 0.412 | – | –
5 | O=C(O)c1ccc2nc(CN3CC=C(c4cccc(OCc5ccc(Cl)cc5F)n4)CC3)n(C[C@@H]3CCO3)c2c1 [drawing 65] | 3.28 | 0.393 | – | –
6 | N#Cc1ccc(COc2cncc(C3CCN(Cc4nc5ccc(C(=O)O)cc5n4C[C@@H]4CCO4)CC3)n2)c(F)c1 [drawing 62, reference compound] | 924 ± 230 | 15.9 | – | –
7 | O=C(O)c1ccc2nc(CN3CCC(c4cncc(OCc5ccc(Cl)cc5F)n4)CC3)n(C[C@@H]3CCO3)c2c1 [drawing 60, reference compound] | 289 ± 53 | 10.5 | – | –
8 | N#Cc1ccc(COc2nc(C3=CCN(Cc4nc5ccc(C(=O)O)cc5n4C[C@@H]4CCO4)CC3)ccc2F)c(F)c1 [drawing 57] | 6.05 | 0.517 | – | –
9 | O=C(O)c1ccc2nc(CN3CC=C(c4cccc(OCc5ccc(Cl)cc5F)c4)CC3)n(C[C@@H]3CCO3)c2c1 [drawing 67] | 42.6 ± 11.5 | 3.94 | – | –
10 | O=C(O)c1ccc2nc(CN3CCC(c4ccnc(OCc5ccc(Cl)cc5F)n4)CC3)n(C[C@@H]3CCO3)c2c1 [drawing 58, reference compound] | 95.8 | 1.98 | – | –
11 | N#Cc1ccc(COc2cccc(C3=CCN(Cc4nc5ccc(C(=O)O)nc5n4C[C@@H]4CCO4)CC3)n2)c(F)c1 [drawing 69] | 3.86 | 0.168 | – | –
12 | N#Cc1ccc(COc2cncc(C3=CCN(Cc4nc5ccc(C(=O)O)cc5n4C[C@@H]4CCO4)CC3)n2)c(F)c1 [drawing 63] | 260 ± 38 | 9.85 | – | –
13 | N#Cc1ccc(COc2cccc(C3CCN(Cc4nc5ccc(C(=O)O)nc5n4C[C@@H]4CCO4)CC3)n2)c(F)c1 [reference compound] | 3.5 | 0.3 | – | –
14 | O=C(O)c1ccc2nc(CN3CC=C(c4ccnc(OCc5ccc(Cl)cc5F)n4)CC3)n(C[C@@H]3CCO3)c2c1 [drawing 59] | 73.7 | 1.8 | – | –
15 | O=C(O)c1ccc2nc(CN3CCN(c4ccc5ccn(Cc6ccc(Cl)cc6F)c5n4)CC3)n(C[C@@H]3CCO3)c2c1 [Compound 13, (S)-2-((4-(1-(4-chloro-2-fluorobenzyl)-1 h-pyrrolo[2,3-b]pyridin-6-yl)piperazin-1-yl)methyl)-1-(oxetan-2-ylmethyl)-1 h-benzo[d]imidazole-6-carboxylic add] | – | – | – | ≤ 150
16 | N#Cc1ccc(COc2cccc(N3CCC(Cc4nc5ccc(C(=O)O)c(F)c5n4C[C@@H]4CCO4)CC3)n2)c(F)c1 [Compound 228, (S)-2-((l-(6-((4-cyano-2-fluorobenzyl)oxy)pyridin-2-yl)piperidin-4-yl)methyl)-7-fluoro-1-(oxetan-2-ylmethyl)-1H-benzo[d]imidazole-6-carboxylic acid] | – | – | ≤ 150 | ≤ 15
17 | O=C(O)c1ccc2nc(CN3CC=C(c4cccc(OCc5cccnc5)n4)CC3)n(C[C@@H]3CCO3)c2c1 [Compound 158] | – | – | – | ≤ 150
18 | O=C(O)c1ccc2nc(CN3CCC(c4ccc5ccn(Cc6ccc(Cl)cc6F)c5n4)CC3)n(C[C@@H]3CCO3)c2c1 [Compound 24, (S)-2-((4-(1-(4-chloro-2-fluorobenzyl)-1H-pyrrolo[2,3-b]pyridin-6-yl)piperidin-1-yl)methyl)-1-(oxetan-2-ylmethyl)-1H-benzo[d]imidazole-6-carboxylic add] | – | – | – | ≤ 150
19 | O=C(O)c1ccc2nc(CN3CC=C(c4cccc(OCc5ccc(C#CC6CC6)cc5F)c4)CC3)n(C[C@@H]3CCO3)c2c1 [Compound 199, (S)-2-((4-(3-((4-(cyclopropylethynyl)-2-fluorobenzyl)oxy)phenyl)-3,6-dihydropyridin-1(2H)-yl)methyl)-1-(oxetan-2-ylmethyl)-1H-benzo[d]imidazole-6-carboxylicacid] | – | – | – | ≤ 150
20 | O=C(O)c1ccc2nc(CN3CC=C(c4cncc(OCc5ccc(Cl)cc5F)c4)CC3)n(C[C@@H]3CCO3)c2c1 [Compound 32, (S)-2-((5-((4-chloro-2-fluorobenzyl)oxy)-3′,6′-dihydro-[3H′-bipyridin]-1′(2′H)-yl)methyl)-1-(oxetan-2-ylmethyl)-1 h-benzo[d]imidazole-6-carboxylic acid] | – | – | – | ≤ 1000
21 | O=C(O)c1ccc2nc(CN3CC=C(c4ccnc(NCc5ccc(Cl)cc5F)n4)CC3)n(C[C@@H]3CCO3)c2c1 [Compound 125, (S)-2-((4-(2-((4-chloro-2-fluorobenzyl)amino)pyrimidin-4-yl)-3,6-dihydropyridin-1(2H)-yl)methyl)-1-(oxetan-2-ylmethyl)-1H-benzo[d]imidazole-6-carboxylic add] | – | – | – | ≤ 150
22 | O=C(O)c1ccc2nc(CN3CCC(c4cccc(OCc5ccc(Cl)cc5F)c4)CC3)n(C[C@@H]3CCO3)c2c1 [drawing 66, reference compound] | 105 ± 32.7 | 8.58 | – | –
23 | CC(Oc1cccc(C2=CCN(Cc3nc4ccc(C(=O)O)cc4n3C[C@@H]3CCO3)CC2)n1)c1ccc(Cl)cc1F (stereo partly shown) [Compound 70] | – | – | – | ≤ 15
24 | O=C(O)c1ccc2nc(CN3CCN(c4cc(OCc5ccc(Cl)cc5F)c(F)cc4F)CC3)n(C[C@@H]3CCO3)c2c1 [Compound 188] | – | – | – | ≤ 150
25 | N#Cc1ccc(COc2cccc(C3=CCN(Cc4nc5ccc(C(=O)O)cc5n4C[C@@H]4CCO4)CC3)n2)c(F)c1 [drawing 55] | 2.25 | 0.219 | – | –
26 | O=C(O)c1ccc2nc(CN3CC=C(c4nc(OCc5ccc(C#CC6CC6)cc5F)ncc4F)CC3)n(C[C@@H]3CCO3)c2c1 [Compound 211, (S)-2-((4-(2-(4-(cyclopropylethynyl)-2-fluorobenzyloxy)-5-fluoropyrimidin-4-yl)-5,6-dihydropyridin-1(2H)-yl)methyl)-1-(oxetan-2-ylmethyl)-1H-benzo[d]imidazole-6-carboxylic acid] | – | – | – | ≤ 15
